# Assay results from patent US20160002204A1 (Board of Regents, The University of Texas System, priority 2014, published 2016).
# Columns and labels:
# A549 cells = test: A549 proliferation (viability) assay, Cell Titer Fluor, 72 hours; type: cell-based; conditions: Homo sapiens
# How it was run: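 1000 A549 cells/well, RPMI 1640/10% dialyzed FBS, 24 h attach; compound 72 h, 0.5% DMSO, 37 °C/5% CO2; Cell Titer Fluor fluorescence; EC50 via 4-parameter logistic.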
# [1] = molecular target: T1, GLS1 (purified recombinant human GAC) (Homo sapiens, UniProt O94925); test: GLS1 enzymatic activity assay (dual-coupled, Amplex UltraRed/resorufin); type: biochemical
# T1 sequence (O94925 55-598 isoform O94925-3 limits assumed): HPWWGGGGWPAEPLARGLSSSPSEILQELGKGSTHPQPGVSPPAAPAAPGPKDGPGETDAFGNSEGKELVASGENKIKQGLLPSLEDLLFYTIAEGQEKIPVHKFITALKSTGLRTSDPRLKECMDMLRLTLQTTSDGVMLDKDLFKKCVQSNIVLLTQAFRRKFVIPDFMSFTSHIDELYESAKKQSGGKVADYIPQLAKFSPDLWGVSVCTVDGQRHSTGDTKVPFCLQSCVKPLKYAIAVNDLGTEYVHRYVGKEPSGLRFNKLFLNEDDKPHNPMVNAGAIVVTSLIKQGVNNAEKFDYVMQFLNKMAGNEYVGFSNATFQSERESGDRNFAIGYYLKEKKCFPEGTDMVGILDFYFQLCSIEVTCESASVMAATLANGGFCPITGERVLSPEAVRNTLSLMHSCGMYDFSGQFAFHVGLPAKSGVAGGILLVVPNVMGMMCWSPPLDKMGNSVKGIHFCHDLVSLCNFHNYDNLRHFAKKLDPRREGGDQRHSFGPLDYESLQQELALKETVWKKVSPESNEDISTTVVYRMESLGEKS
# How it was run: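 In this coupled fluorometric format, phosphate-activated GAC (2 nM, 50 mM phosphate) is pre-exposed to compound for 10 min before 1 mM glutamine addition. Product is tracked as resorufin (530/590 nm) over time or at 20 min, and potency is derived by logistic fitting.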
Compound,EC50 (A549 cells) [nM],IC50 [1] [nM]
"Nc1ccn(CCCCc2ccc(NC(=O)Cc3cccc(OC(F)(F)F)c3)nn2)c(=O)n1 [Example 77, N-{6-[4-(4-amino-2-oxo-1,2-dihydropyrimidin-1-yl)butyl]pyridazin-3-yl}-2-[3-(trifluoromethoxy)phenyl]acetamide]",> 5000,500 to 5000
"CC(C)(C)OC(=O)N[C@H]1CC[C@@H](CC(=O)Nc2ccn(CCC(F)Cn3cc(C(=O)NCc4cccc(OC(F)(F)F)c4)nn3)c(=O)c2)CC1 (some centres unmarked) [Example 241, tert-butyl N-[(1s,4s)-4-{[(1-{3-fluoro-4-[4-({[3-(trifluoromethoxy)phenyl]methyl}carbamoyl)-1H-1,2,3-triazol-1-yl]butyl}-2-oxo-1,2-dihydropyridin-4-yl)carbamoyl]methyl}cyclohexyl]carbamate]",< 100,< 100
"O=C(CC1CCCCC1)Nc1ccn(CCCCn2cc(C(=O)NCc3ncccc3F)nn2)c(=O)c1 [Example 146, 1-{4-[4-(2-cyclohexylacetamido)-2-oxo-1,2-dihydropyridin-1-yl]butyl}-N-[(3-fluoropyridin-2-yl)methyl]-1H-1,2,3-triazole-4-carboxamide]",100 to 500,< 100
"O=C(Cc1ccsc1)Nc1ccn(CCCCn2cc(C(=O)NCc3cccc(OC(F)(F)F)c3)nn2)c(=O)c1 [Example 203, 1-(4-{2-oxo-4-[2-(thiophen-3-yl)acetamido]-1,2-dihydropyridin-1-yl}butyl)-N-{[3-(trifluoromethoxy)phenyl]methyl}-1H-1,2,3-triazole-4-carboxamide]",100 to 500,< 100
"CO[C@@H](C(=O)Nc1ccn(CCC(F)Cn2cc(C(=O)NCc3cccc(OC(F)(F)F)c3)nn2)c(=O)c1F)c1ccccc1 (stereo partly drawn) [Example 284, 1-(2-fluoro-4-{3-fluoro-4-[(2R)-2-methoxy-2-phenylacetamido]-2-oxo-1,2-dihydropyridin-1-yl}butyl)-N-{[3-(trifluoromethoxy)phenyl]methyl}-1H-1,2,3-triazole-4-carboxamide]",< 100,< 100
"O=C(Cc1ccccc1)Nc1ccn(CCCCc2nnc(NC(=O)NCc3ccccc3)s2)c(=O)c1F [Example 129, N-(1-(4-(5-(3-benzylureido)-1,3,4-thiadiazol-2-yl)butyl)-3-fluoro-2-oxo-1,2-dihydropyridin-4-yl)-2-phenylacetamide]",500 to 5000,< 100
"CC(C)(C)COC(=O)Nc1ccn(CCC(F)Cn2cc(C(=O)NCc3cc(C(F)(F)F)ccn3)nn2)c(=O)n1 (centres unmarked) [Example 492, 2,2-dimethylpropyl N-(1-{3-fluoro-4-[4-({[4-(trifluoromethyl)pyridin-2-yl]methyl}carbamoyl)-1H-1,2,3-triazol-1-yl]butyl}-2-oxo-1,2-dihydropyrimidin-4-yl)carbamate]",< 100,< 100
"Cn1cc(CC(=O)Nc2ccn(CCCCc3ccc(NC(=O)Cc4cccc(OC(F)(F)F)c4)nn3)c(=O)n2)cn1 [Example 114, N-[6-(4-{4-[2-(1-methyl-1H-pyrazol-4-yl)acetamido]-2-oxo-1,2-dihydropyrimidin-1-yl}butyl)pyridazin-3-yl]-2-[3-(trifluoromethoxy)phenyl]acetamide]",< 100,< 100
"O=C(CN1CCCCC1)Nc1ccn(CCC(F)Cn2cc(C(=O)NCc3cc(C(F)(F)F)ccn3)nn2)c(=O)c1F (centres unmarked) [Example 344, 1-(2-fluoro-4-{3-fluoro-2-oxo-4-[2-(piperidin-1-yl)acetamido]-1,2-dihydropyridin-1-yl}butyl)-N-{[4-(trifluoromethyl)pyridin-2-yl]methyl}-1H-1,2,3-triazole-4-carboxamide]",< 100,100 to 500
"O=C(Nc1ccn(CCC(F)Cn2cc(C(=O)NCc3cccc(OC(F)(F)F)c3)nn2)c(=O)n1)OC1CCCCC1 (centres unmarked) [Example 383, cyclohexyl N-(1-{3-fluoro-4-[4-({[3-(trifluoromethoxy)phenyl]methyl}carbamoyl)-1H-1,2,3-triazol-1-yl]butyl}-2-oxo-1,2-dihydropyrimidin-4-yl)carbamate]",< 100,< 100
"O=C(Cc1ccccc1)Nc1ccn(CCC(F)Cn2cc(C(=O)NCc3cc(Br)ccn3)nn2)c(=O)c1 (centres unmarked) [Example 163, N-[(4-bromopyridin-2-yl)methyl]-1-{2-fluoro-4-[2-oxo-4-(2-phenylacetamido)-1,2-dihydropyridin-1-yl]butyl}-1H-1,2,3-triazole-4-carboxamide]",100 to 500,< 100
"CC(C)CNC(=O)c1cn(CC(F)CCn2ccc(NC(=O)CN3CCN(C(=O)OC(C)(C)C)CC3)cc2=O)nn1 (centres unmarked) [Example 404, tert-butyl 4-({[1-(3-fluoro-4-{4-[(2-methylpropyl)carbamoyl]-lH-1,2,3-triazol-1-yl}butyl)-2-oxo-1,2-dihydropyridin-4-yl]carbamoyl}methyl)piperazine-1-carboxylate]",500 to 5000,100 to 500
"O=C(NCc1cncc(C(F)(F)F)c1)c1cn(CC(F)CCn2ccc(NC(=O)C(F)c3ccccc3)c(F)c2=O)nn1 (centres unmarked) [Example 362, 1-{2-fluoro-4-[3-fluoro-4-(2-fluoro-2-phenylacetamido)-2-oxo-1,2-dihydropyridin-1-yl]butyl}-N-{[5-(trifluoromethyl)pyridin-3-yl]methyl}-1H-1,2,3-triazole-4-carboxamide]",< 100,< 100
"O=C(Cc1cccc(OC(F)(F)F)c1)Nc1ccn(CCCCc2nnc(NC(=O)Cc3ccccc3)s2)c(=O)n1 [Example 19, N-(2-oxo-1-{4-[5-(2-phenylacetamido)-1,3,4-thiadiazol-2-yl]butyl}-1,2dihydropyrimidin-4-yl)-2-[3-(trifluoromethoxy)phenyl]acetamide]",100 to 500,< 100
"O=C(CN1CCCCC1)Nc1ccn(CCC(F)Cn2cc(C(=O)NCc3cccc(C(F)(F)F)n3)nn2)c(=O)c1F (centres unmarked) [Example 338, 1-(2-fluoro-4-{3-fluoro-2-oxo-4-[2-(piperidin-1-yl)acetamido]-1,2-dihydropyridin-1-yl}butyl)-N-{[6-(trifluoromethyl)pyridin-2-yl]methyl}-1H-1,2,3-triazole-4-carboxamide]",100 to 500,100 to 500
"O=C(Nc1ccn(CCC(F)Cn2cc(C(=O)NCc3cc(C(F)(F)F)ccn3)nn2)c(=O)n1)OCc1cccc(OC(F)(F)F)c1 (centres unmarked) [Example 500, [3-(trifluoromethoxy)phenyl]methyl N-(1-{3-fluoro-4-[4-({[4-(trifluoromethyl)pyridin-2-yl]methyl}carbamoyl)-1H-1,2,3-triazol-1-yl]butyl}-2-oxo-1,2-dihydropyrimidin-4-yl)carbamate]",< 100,< 100
"CCOC(=O)N1CCN(CC(=O)Nc2ccn(CCC(F)Cn3cc(C(=O)NCc4cccc(OC(F)(F)F)c4)nn3)c(=O)c2)CC1 (centres unmarked) [Example 255, ethyl 4-{[(1-{3-fluoro-4-[4-({[3-(trifluoromethoxy)phenyl]methyl}carbamoyl)-1H-1,2,3-triazol-1-yl]butyl}-2-oxo-1,2-dihydropyridin-4-yl)carbamoyl]methyl}piperazine-1-carboxylate]",< 100,< 100
"O=C(CN1CCS(=O)(=O)CC1)Nc1ccn(CCC(F)Cn2cc(C(=O)NCc3cccc(OC(F)(F)F)c3)nn2)c(=O)c1 (centres unmarked) [Example 231, 1-(4-{4-[2-(1,1-dioxo-1$l^6,4-thiomorpholin-4-yl)acetamido]-2-oxo-1,2-dihydropyridin-1-yl}-2-fluorobutyl)-N-{[3-(trifluoromethoxy)phenyl]methyl}-1H-1,2,3-triazole-4-carboxamide]",> 5000,100 to 500
"COC(=O)C1CCN(CC(=O)Nc2ccn(CCC(F)Cn3cc(C(=O)NCc4cccc(OC(F)(F)F)c4)nn3)c(=O)c2)CC1 (centres unmarked) [Example 273, methyl 1-{[(1-{3-fluoro-4-[4-({[3-(trifluoromethoxy)phenyl]methyl}carbamoyl)-1H-1,2,3-triazol-1-yl]butyl}-2-oxo-1,2-dihydropyridin-4-yl)carbamoyl]methyl}piperidine-4-carboxylate]",500 to 5000,< 100
"O=C(Cc1ccccc1)Nc1ccc(CCCCn2ccc(NC(=O)Cc3cccc(OC(F)(F)F)c3)nc2=O)nn1 [Example 99, N-{6-[4-(2-oxo-4-{2-[3-(trifluoromethoxy)phenyl]acetamido}-1,2-dihydropyrimidin-1-yl)butyl]pyridazin-3-yl}-2-phenylacetamide]",< 100,< 100
"COCCNC(=O)c1nnc(CCCCn2ccc(NC(=O)CC3CCCCC3)cc2=O)s1 [Example 451, 5-{4-[4-(2-cyclohexylacetamido)-2-oxo-1,2-dihydropyridin-1-yl]butyl)-N-(2-methoxyethyl)-1,3,4-thiadiazole-2-carboxamide]",100 to 500,< 100
"CC(C)COC(=O)Nc1ccn(CCC(F)Cn2cc(C(=O)NCc3cccc(OC(F)(F)F)c3)nn2)c(=O)n1 (centres unmarked) [Example 471, 2-methylpropyl N-(1-{3-fluoro-4-[4-({[3-(trifluoro-methoxy)phenyl]methyl}carbamoyl)-1H-1,2,3-triazol-1-yl]butyl}-2-oxo-1,2-dihydropyrimidin-4-yl)carbamate]",< 100,< 100
